Holding throughout (assay): relative viability (nuclei count vs DMSO), 5 days (fraction); higher = more cells survive
Compound in the test “Vismodegib + Navitoclax”: CS(=O)(=O)c1ccc(C(=O)Nc2ccc(Cl)c(-c3ccccn3)c2)c(Cl)c1 [Vismodegib] + CC1(C)CCC(c2ccc(Cl)cc2)=C(CN2CCN(c3ccc(C(=O)NS(=O)(=O)c4ccc(N[C@H](CCN5CCOCC5)CSc5ccccc5)c(S(=O)(=O)C(F)(F)F)c4)cc3)CC2)C1 [Navitoclax] (partner 0.5 µM)
In outline:
(§1)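 Five library-drug doses in √10 steps were combined with a fixed anchor-drug dose, or a single drug was given alone, by pin tool to lung cancer cell lines in 1536-well plates the day after seeding. Nuclei were stained and counted after 5 days. Relative viability is the nuclei count in treated wells over that in vehicle wells, taken as the median of duplicate plates.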

Compound in the test “Vismodegib + Pemetrexed”: CS(=O)(=O)c1ccc(C(=O)Nc2ccc(Cl)c(-c3ccccn3)c2)c(Cl)c1 [Vismodegib] + Nc1nc2[nH]cc(CCc3ccc(C(=O)N[C@@H](CCC(=O)O)C(=O)O)cc3)c2c(=O)[nH]1 [Pemetrexed] (partner 0.2 µM)
Summed up: as §1

Compound in the test “VE-821 + Dasatinib”: CS(=O)(=O)c1ccc(-c2cnc(N)c(C(=O)Nc3ccccc3)n2)cc1 [VE-821] + Cc1nc(Nc2ncc(C(=O)Nc3c(C)cccc3Cl)s2)cc(N2CCN(CCO)CC2)n1 [Dasatinib] (partner 0.075 µM)
In outline: as §1

Compound in the test “Vismodegib + Palbociclib”: CS(=O)(=O)c1ccc(C(=O)Nc2ccc(Cl)c(-c3ccccn3)c2)c(Cl)c1 [Vismodegib] + CC(=O)c1c(C)c2cnc(Nc3ccc(N4CCNCC4)cn3)nc2n(C2CCCC2)c1=O [Palbociclib] (partner 0.5 µM)
In outline:
as §1

PC-3 [JPC-3]: the relative viability in the test with Vismodegib + Navitoclax (first compound 0.08 µM) was 0.758; in the test with Vismodegib + Navitoclax (first compound 0.253 µM), 0.789; with Vismodegib + Navitoclax (first compound 0.8 µM) it was 0.769; in the test with Vismodegib + Navitoclax (first compound 2.53 µM), 0.768; in the test with Vismodegib + Navitoclax (first compound 8 µM), 0.778; in the test with Vismodegib + Pemetrexed (first compound 0.08 µM) it was 1.05. Further, the relative viability was determined as 1.03 with Vismodegib + Pemetrexed (first compound 0.253 µM); 1.13 in the test with Vismodegib + Pemetrexed (first compound 0.8 µM); 1.16 with Vismodegib + Pemetrexed (first compound 2.53 µM); 0.651 in the test with Vismodegib + Pemetrexed (first compound 8 µM); 1.06 in the test with VE-821 + Dasatinib (first compound 0.08 µM); 0.967 with VE-821 + Dasatinib (first compound 0.253 µM). The relative viability with VE-821 + Dasatinib (first compound 0.8 µM) was determined as 1.07; with VE-821 + Dasatinib (first compound 2.53 µM), 1.02; with VE-821 + Dasatinib (first compound 8 µM) it was 0.907; with Vismodegib + Palbociclib (first compound 0.08 µM), 0.522; with Vismodegib + Palbociclib (first compound 0.253 µM) it was 0.547; in the test with Vismodegib + Palbociclib (first compound 0.8 µM), 0.511. For the same cell line, the relative viability with Vismodegib + Palbociclib (first compound 2.53 µM) was 0.506; with Vismodegib + Palbociclib (first compound 8 µM) it was 0.572.
Consider PC-14, for which the relative viability with Vismodegib + Navitoclax (first compound 0.08 µM) was 0.967; in the test with Vismodegib + Navitoclax (first compound 0.253 µM) it was 0.974; with Vismodegib + Navitoclax (first compound 0.8 µM), 1.1; with Vismodegib + Navitoclax (first compound 2.53 µM), 0.946; with Vismodegib + Navitoclax (first compound 8 µM), 0.965; in the test with Vismodegib + Pemetrexed (first compound 0.08 µM), 0.148. In addition, the relative viability with Vismodegib + Pemetrexed (first compound 0.253 µM) came out at 0.135; with Vismodegib + Pemetrexed (first compound 0.8 µM), 0.133; with Vismodegib + Pemetrexed (first compound 2.53 µM), 0.144; with Vismodegib + Pemetrexed (first compound 8 µM), 0.136; with VE-821 + Dasatinib (first compound 0.08 µM) it was 0.231; with VE-821 + Dasatinib (first compound 0.253 µM), 0.238. Also, the relative viability with VE-821 + Dasatinib (first compound 0.8 µM) is 0.269; with VE-821 + Dasatinib (first compound 2.53 µM) it was 0.229; with VE-821 + Dasatinib (first compound 8 µM) it was 0.0835; in the test with Vismodegib + Palbociclib (first compound 0.08 µM), 0.494; with Vismodegib + Palbociclib (first compound 0.253 µM) it was 0.492; with Vismodegib + Palbociclib (first compound 0.8 µM), 0.614. In addition, the relative viability in the test with Vismodegib + Palbociclib (first compound 2.53 µM) stood at 0.587; with Vismodegib + Palbociclib (first compound 8 µM), 0.621.
Regarding RERF-LC-KJ, the relative viability was 0.997 with Vismodegib + Navitoclax (first compound 0.08 µM); 1.08 in the test with Vismodegib + Navitoclax (first compound 0.253 µM); 0.85 in the test with Vismodegib + Navitoclax (first compound 0.8 µM); 0.756 in the test with Vismodegib + Navitoclax (first compound 2.53 µM); 0.802 in the test with Vismodegib + Navitoclax (first compound 8 µM); 0.491 with Vismodegib + Pemetrexed (first compound 0.08 µM). In addition, the relative viability in the test with Vismodegib + Pemetrexed (first compound 0.253 µM) is 0.454; with Vismodegib + Pemetrexed (first compound 0.8 µM), 0.468; with Vismodegib + Pemetrexed (first compound 2.53 µM), 0.508; with Vismodegib + Pemetrexed (first compound 8 µM) it was 0.479; with VE-821 + Dasatinib (first compound 0.08 µM), 0.924; with VE-821 + Dasatinib (first compound 0.253 µM), 0.651. Moreover, the relative viability is 0.582 with VE-821 + Dasatinib (first compound 0.8 µM); 0.69 in the test with VE-821 + Dasatinib (first compound 2.53 µM); 0.582 in the test with VE-821 + Dasatinib (first compound 8 µM); 1.03 with Vismodegib + Palbociclib (first compound 0.08 µM); 1 in the test with Vismodegib + Palbociclib (first compound 0.253 µM); 1.08 with Vismodegib + Palbociclib (first compound 0.8 µM). Moreover, the figures for the relative viability with Vismodegib + Palbociclib (first compound 2.53 µM) and in the test with Vismodegib + Palbociclib (first compound 8 µM) were 1.02 and 1.14, respectively.
As to SK-LU-1, the relative viability with Vismodegib + Navitoclax (first compound 0.08 µM) was 0.831; with Vismodegib + Navitoclax (first compound 0.253 µM) it was 0.695; with Vismodegib + Navitoclax (first compound 0.8 µM), 0.834; with Vismodegib + Navitoclax (first compound 2.53 µM), 0.736; with Vismodegib + Navitoclax (first compound 8 µM), 0.936; with Vismodegib + Pemetrexed (first compound 0.08 µM) it was 0.971. For the same cell line, the relative viability with Vismodegib + Pemetrexed (first compound 0.253 µM) is 1.03; with Vismodegib + Pemetrexed (first compound 0.8 µM), 0.982; with Vismodegib + Pemetrexed (first compound 2.53 µM) it was 0.909; with Vismodegib + Pemetrexed (first compound 8 µM), 0.845; in the test with VE-821 + Dasatinib (first compound 0.08 µM), 0.17; with VE-821 + Dasatinib (first compound 0.253 µM), 0.19. For the same cell line, the relative viability in the test with VE-821 + Dasatinib (first compound 0.8 µM) stood at 0.163; with VE-821 + Dasatinib (first compound 2.53 µM), 0.16; in the test with VE-821 + Dasatinib (first compound 8 µM), 0.12; with Vismodegib + Palbociclib (first compound 0.08 µM) it was 0.407; in the test with Vismodegib + Palbociclib (first compound 0.253 µM), 0.416; in the test with Vismodegib + Palbociclib (first compound 0.8 µM) it was 0.416. The relative viability with Vismodegib + Palbociclib (first compound 2.53 µM) came out at 0.376; with Vismodegib + Palbociclib (first compound 8 µM), 0.384.
In the case of SK-MES-1, the relative viability worked out at 1.23 with Vismodegib + Navitoclax (first compound 0.08 µM); 1.22 in the test with Vismodegib + Navitoclax (first compound 0.253 µM); 1.23 with Vismodegib + Navitoclax (first compound 0.8 µM); 1.15 with Vismodegib + Navitoclax (first compound 2.53 µM); 1.17 with Vismodegib + Navitoclax (first compound 8 µM); 0.853 with Vismodegib + Pemetrexed (first compound 0.08 µM). In addition, the relative viability with Vismodegib + Pemetrexed (first compound 0.253 µM) is 0.928; with Vismodegib + Pemetrexed (first compound 0.8 µM), 0.871; with Vismodegib + Pemetrexed (first compound 2.53 µM) it was 0.972; with Vismodegib + Pemetrexed (first compound 8 µM), 0.825; with VE-821 + Dasatinib (first compound 0.08 µM) it was 0.389; with VE-821 + Dasatinib (first compound 0.253 µM) it was 0.379. For the same cell line, the relative viability with VE-821 + Dasatinib (first compound 0.8 µM) is 0.274; with VE-821 + Dasatinib (first compound 2.53 µM), 0.332; with VE-821 + Dasatinib (first compound 8 µM), 0.199; with Vismodegib + Palbociclib (first compound 0.08 µM), 0.289; in the test with Vismodegib + Palbociclib (first compound 0.253 µM), 0.306; with Vismodegib + Palbociclib (first compound 0.8 µM), 0.349. Also, the relative viability in the test with Vismodegib + Palbociclib (first compound 2.53 µM) was determined as 0.351; with Vismodegib + Palbociclib (first compound 8 µM) it was 0.364.
Consider SW 1573, for which the relative viability worked out at 0.808 in the test with Vismodegib + Navitoclax (first compound 0.08 µM); 0.94 in the test with Vismodegib + Navitoclax (first compound 0.253 µM); 0.886 with Vismodegib + Navitoclax (first compound 0.8 µM); 1.04 with Vismodegib + Navitoclax (first compound 8 µM); 0.79 in the test with Vismodegib + Pemetrexed (first compound 0.08 µM); 0.894 with Vismodegib + Pemetrexed (first compound 0.253 µM). The relative viability came out at 0.764 with Vismodegib + Pemetrexed (first compound 0.8 µM); 0.855 with Vismodegib + Pemetrexed (first compound 2.53 µM); 0.865 with Vismodegib + Pemetrexed (first compound 8 µM); 0.49 with VE-821 + Dasatinib (first compound 0.08 µM); 0.573 in the test with VE-821 + Dasatinib (first compound 0.253 µM); 0.551 with VE-821 + Dasatinib (first compound 0.8 µM). Besides, the relative viability with VE-821 + Dasatinib (first compound 2.53 µM) is 0.503; in the test with VE-821 + Dasatinib (first compound 8 µM), 0.218; with Vismodegib + Palbociclib (first compound 0.08 µM), 0.395; with Vismodegib + Palbociclib (first compound 0.253 µM) it was 0.398; with Vismodegib + Palbociclib (first compound 0.8 µM) it was 0.363; with Vismodegib + Palbociclib (first compound 2.53 µM), 0.406. Also, the relative viability in the test with Vismodegib + Palbociclib (first compound 8 µM) was 0.451.

Source of the values: the supplement of paper PMC10307832.
